Results reported in article PMC11899342, “Novel Triazeneindole Antibiotics: Synthesis and Hit-to-Lead Optimization” (International Journal of Molecular Sciences, 2025).

Tested on: MRSA clinical isolates
Experiment: Antibiotic susceptibility profile of MRSA clinical isolates (EUCAST breakpoints)
Type: cell-based, Staphylococcus aureus
Source text: Clinical MRSA isolates with multidrug resistance were obtained from the collection of the Research Institute of Antimicrobial Chemotherapy, Smolensk State Medical Academy.

Compound: CCC[C@@H]1C[C@@H](C(=O)N[C@@H]([C@H]2O[C@H](SC)[C@H](O)[C@@H](O)[C@H]2O)[C@H](C)Cl)N(C)C1 [CLIND, clindamycin]
- Drug sensibility profile (MRSA strain 1): S
- Drug sensibility profile (MRSA strain 2): R
- Drug sensibility profile (MRSA strain 3): S
- Drug sensibility profile (MRSA strain 4): S
- Drug sensibility profile (MRSA strain 5): R
- Drug sensibility profile (MRSA strain 6): R
- Drug sensibility profile (MRSA strain 7): R
- Drug sensibility profile (MRSA strain 8): S
- Drug sensibility profile (MRSA strain 9): S
- Drug sensibility profile (MRSA strain 10): S
- Drug sensibility profile (MRSA strain 12): R
- Drug sensibility profile (MRSA strain 13): S
- Drug sensibility profile (MRSA strain 14): R
- Drug sensibility profile (MRSA strain 15): S
- Drug sensibility profile (MRSA strain 16): R
- Drug sensibility profile (MRSA strain 17): S
- Drug sensibility profile (MRSA strain 18): S
- Drug sensibility profile (MRSA strain 21): R
- Drug sensibility profile (MRSA strain 23): R
- Drug sensibility profile (MRSA strain 24): S
- Drug sensibility profile (MRSA strain 25): S
- Drug sensibility profile (MRSA strain 26): S S S S S S S
- Drug sensibility profile (MRSA strain 27): S
- Drug sensibility profile (MRSA strain 28): S
- Drug sensibility profile (MRSA strain 29): S
- Drug sensibility profile (MRSA strain 30): S
- Drug sensibility profile (MRSA strain 31): R
- Drug sensibility profile (MRSA strain 34): S
- Drug sensibility profile (MRSA strain 35): S
- Drug sensibility profile (MRSA strain 36): S S S S S S S
- Drug sensibility profile (MRSA strain 40): R
- Drug sensibility profile (MRSA strain 41): S
- Drug sensibility profile (MRSA strain 42): S
- Drug sensibility profile (MRSA strain 43): S
- Drug sensibility profile (MRSA strain 44): S
- Drug sensibility profile (MRSA strain 45): R
- Drug sensibility profile (MRSA strain 46): S
- Drug sensibility profile (MRSA strain 48): R
- Drug sensibility profile (MRSA strain 49): S
- Drug sensibility profile (MRSA strain 50): R
- Drug sensibility profile (MRSA strain 51): S

Compound: Cc1cc(NS(=O)(=O)c2ccc(N)cc2)no1 [SUL, sulfamethoxazole]
- Drug sensibility profile (MRSA strain 1): R
- Drug sensibility profile (MRSA strain 2): S
- Drug sensibility profile (MRSA strain 3): S
- Drug sensibility profile (MRSA strain 4): S
- Drug sensibility profile (MRSA strain 5): S
- Drug sensibility profile (MRSA strain 6): S
- Drug sensibility profile (MRSA strain 7): S
- Drug sensibility profile (MRSA strain 8): S
- Drug sensibility profile (MRSA strain 9): S
- Drug sensibility profile (MRSA strain 10): S
- Drug sensibility profile (MRSA strain 12): S
- Drug sensibility profile (MRSA strain 13): S
- Drug sensibility profile (MRSA strain 14): S
- Drug sensibility profile (MRSA strain 15): S
- Drug sensibility profile (MRSA strain 16): S
- Drug sensibility profile (MRSA strain 17): I
- Drug sensibility profile (MRSA strain 18): S
- Drug sensibility profile (MRSA strain 21): S
- Drug sensibility profile (MRSA strain 23): S
- Drug sensibility profile (MRSA strain 24): S
- Drug sensibility profile (MRSA strain 25): S
- Drug sensibility profile (MRSA strain 26): S S S S S S S
- Drug sensibility profile (MRSA strain 27): S
- Drug sensibility profile (MRSA strain 28): S
- Drug sensibility profile (MRSA strain 29): S
- Drug sensibility profile (MRSA strain 30): S
- Drug sensibility profile (MRSA strain 31): S
- Drug sensibility profile (MRSA strain 34): S
- Drug sensibility profile (MRSA strain 35): S
- Drug sensibility profile (MRSA strain 36): S S S S S S S
- Drug sensibility profile (MRSA strain 40): S
- Drug sensibility profile (MRSA strain 41): S
- Drug sensibility profile (MRSA strain 42): S
- Drug sensibility profile (MRSA strain 43): S
- Drug sensibility profile (MRSA strain 44): S
- Drug sensibility profile (MRSA strain 45): S
- Drug sensibility profile (MRSA strain 46): S
- Drug sensibility profile (MRSA strain 48): S
- Drug sensibility profile (MRSA strain 49): S
- Drug sensibility profile (MRSA strain 50): S
- Drug sensibility profile (MRSA strain 51): S

Compound: CN(C)c1cc(NC(=O)CNC(C)(C)C)c(O)c2c1C[C@H]1C[C@H]3[C@H](N(C)C)C(O)=C(C(N)=O)C(=O)[C@@]3(O)C(O)=C1C2=O [Tigecycline]
- Drug sensibility profile (MRSA strain 1): S
- Drug sensibility profile (MRSA strain 2): R
- Drug sensibility profile (MRSA strain 3): S
- Drug sensibility profile (MRSA strain 4): S
- Drug sensibility profile (MRSA strain 5): S
- Drug sensibility profile (MRSA strain 6): S
- Drug sensibility profile (MRSA strain 7): S
- Drug sensibility profile (MRSA strain 8): R
- Drug sensibility profile (MRSA strain 9): R
- Drug sensibility profile (MRSA strain 10): S
- Drug sensibility profile (MRSA strain 12): R
- Drug sensibility profile (MRSA strain 13): R
- Drug sensibility profile (MRSA strain 14): S
- Drug sensibility profile (MRSA strain 15): S
- Drug sensibility profile (MRSA strain 16): S
- Drug sensibility profile (MRSA strain 17): R
- Drug sensibility profile (MRSA strain 18): S
- Drug sensibility profile (MRSA strain 21): S
- Drug sensibility profile (MRSA strain 23): S
- Drug sensibility profile (MRSA strain 24): S
- Drug sensibility profile (MRSA strain 25): S
- Drug sensibility profile (MRSA strain 26): S
- Drug sensibility profile (MRSA strain 27): S
- Drug sensibility profile (MRSA strain 28): S
- Drug sensibility profile (MRSA strain 29): S
- Drug sensibility profile (MRSA strain 30): S
- Drug sensibility profile (MRSA strain 31): S
- Drug sensibility profile (MRSA strain 34): S
- Drug sensibility profile (MRSA strain 35): S
- Drug sensibility profile (MRSA strain 36): S
- Drug sensibility profile (MRSA strain 40): S
- Drug sensibility profile (MRSA strain 41): S
- Drug sensibility profile (MRSA strain 42): S
- Drug sensibility profile (MRSA strain 43): S
- Drug sensibility profile (MRSA strain 44): S
- Drug sensibility profile (MRSA strain 45): S
- Drug sensibility profile (MRSA strain 46): S
- Drug sensibility profile (MRSA strain 48): S
- Drug sensibility profile (MRSA strain 49): S
- Drug sensibility profile (MRSA strain 50): S
- Drug sensibility profile (MRSA strain 51): S
